# Laboratory results published in patent US20250041451A1, “GENE THERAPY FOR HEARING LOSS” (Perceive Biotherapeutics, Inc., priority 2021, published 2025).
# Read-outs that look alike come from different tables or passages of the source.
# Key:
# [1] = test system: cochlear hair cells (mouse cochlear explants); format: cell-based; conditions: for number of viable hair cells: untreated explants 17-52
# Description: In some embodiments, an in vitro method is employed. An illustrative assay uses an aminoglycoside-induced model (using gentamycin) of hair cell death using cochlear explants. In brief, the cochleae are collected from test animal, e.g., mice. All cochleae are combined in the same dissection maintenance bath and plated as an individual sample. The following morning, high magnification digital images of cochlea are taken and cochlear explant is assigned to groups. A desired number of explants will be used for further gentamicin treatment. Test article and positive control article are dosed ˜6 hours either prior, together with, or following to gentamicin for a duration of up to 3 days. If the culture medium is replaced (e.g. when gentamicin is added/removed), the test or positive control article will be re-administered. The cochlea are cultured and observed for health and survival. At the end of the culture cochlear explants are bathed with buffer and processed for cochleogram. Following the fixation, all the cochlear explants undergo immunofluorescent staining with anti-Myosin VIIa and Phalloidin in order to specifically label the hair cells. The explants are then mounted on microscope slides, and imaged utilizing a confocal microscope using the same laser power settings for all samples. Cochlear fragment images are then divided into 20% fragments from the apex to the base. MyosinVIIa light intensity is quantified in each fragment and compared among groups. Image analysis is performed using an imaging platform, e.g., a Fiji image analysis platform. Explants are scanned using confocal microscope with filters for 488 nm and 594 nm wave lengths. Scanning is performed using the same laser power through the entire imaging for proper light intensity calculation. For analysis, cochlea can be divided in fragment of X %. Intensity of light coming from MyoVii is quantified in each fragment and compared among groups.
# Mouse cochlear explants were treated with “ORI-069” a small molecule inhibitor of DLK and LZK. ORI-069 is 2-Amino-N-[(2S)-butan-2-yl]-7-(1-{2-methyl-1-[6-(trifluoromethyl)pyridin-3-yl]propyl}-1H-pyrazol-4-yl)[1,2,4]triazolo[1,5-ca]pyridine-5-carboxamide (stereoisomers 2, eutomer).
# Animals were euthanized in accordance with American Veterinary Medical Association guidelines and cochleae were collected. All cochleae from each group were combined in the same dissection maintenance bath and plated as a group.
# At the end of the culture period, the cochlear explants were bathed with 10% neutral buffered formalin (NBF) and processed for hair cell counting. Digital images of the cultures were collected before fixation.
# Following fixation, all cochlear explants underwent immunofluorescent staining with anti-Myosin VIIa to specifically label the hair cells. The explants were mounted on microscope slides, then imaged utilizing a confocal microscope: 20× for full scan and with 63× oil, zoom 2.25, 4 zones along the length of the cochlea: one from 50-200 μm for each extremity, one in the 33% tile and one in the 66% tile. Detailed scanning was performed using 488 nm and 594 nm filters.
# A blind counting of all hair cells (OHC & IHC undiscriminated) was performed on 4 to 6 zones of each explant (fragments 1, 2, 3, 4, 5 and 6) through the entire z stack generated. Counting and fragment length measure was performed by 3 different individuals. Only cells without nucleus aberration, with good staining, integrity, and well delimited cell outline were considered for counting. Cell density was determined by reporting each counting to the length of the fragment. Image analysis was performed using Fiji image analysis platform, a distribution of ImageJ.
# HC survival and hearing = conditions: literature (Ylikoski 2002; Pirvola 2000); cited from earlier work
molecule,measurement,setting,value
CCSCc1ccc2c(c1)c1c3c(c4c5cc(CSCC)ccc5n5c4c1n2[C@H]1C[C@](O)(C(=O)OC)[C@]5(C)O1)CNC3=O [CEP-1347],level of hair cells compared to gentamycin treated explants,[1]; 0.5 μM test article + gentamycin 50 μM,same low level of hair cells as the gentamycin treated explants
same,protective effect,"[1]; positive control, 0.5 μM + gentamycin 50 μM",did not show a protective effect
same,HC survival and hearing in multiple animal models,HC survival and hearing,increase HC survival and preserve hearing
gentamycin,number of viable hair cells,"[1]; gentamycin 50 μM alone, single 16 h",0-14 hair cells/fragment
"CC[C@H](C)NC(=O)c1cc(-c2cnn(C(c3ccc(C(F)(F)F)nc3)C(C)C)c2)cc2nc(N)nn12 (stereo partly drawn) [ORI-069, 2-Amino-N-[(2S)-butan-2-yl]-7-(1-{2-methyl-1-[6-(trifluoromethyl)pyridin-3-yl]propyl}-1H-pyrazol-4-yl)[1,2,4]triazolo[1,5-ca]pyridine-5-carboxamide]",number of hair cells compared to gentamycin treated explants,[1]; 5 μM test article + gentamycin 50 μM,higher compared to gentamycin treated explants
same,number of viable hair cells,"[1]; gentamycin 50 μM (16 h) treated explants co-administered with 0.5 μM test article, 3 days",0-20 hair cells/fragment
same,number of viable hair cells,"[1]; gentamycin 50 μM (16 h) treated explants co-administered with 5 μM test article, 3 days",0-32 hair cells/fragment
same,"protection of explant cultures (3-D Z-stack reconstructions, FIG. 2)","[1]; gentamycin 50 μM treated explants, concentration not given",protected explant cultures
